# Assay results reported in patent US20040082635A1, “Fused cyclic compounds and medicinal use thereof” (priority 2001, published 2004).
# Structures can show the parent of a compound that is named as a salt.
# Experiments:
# [1] = blood concentration when administered to an animal (statement only, no method); format: in vivo; details: when administered as a pharmaceutical agent to an animal; in words
# HCV type 1b = experiment: inhibitory activity on HCV type 1b (statement only, no method); details: in words
# HCV type 1a = experiment: inhibitory activity on HCV type 1a (statement only, no method); details: in words
# HCV polymerase = target: T1, HCV polymerase (Hepatitis C virus genotype 1b, UniProt P26663); experiment: biochemical; details: read-out: HCV polymerase inhibitory activity IC50
# T1 construct: a region encoding NS5B (591 amino acids; J Virol 1991 Mar, 65(3), 1105-13) was amplified by PCR; 6 His (N); made in house; host or cells: Escherichia coli
# T1 sequence (P26663 2420-3010): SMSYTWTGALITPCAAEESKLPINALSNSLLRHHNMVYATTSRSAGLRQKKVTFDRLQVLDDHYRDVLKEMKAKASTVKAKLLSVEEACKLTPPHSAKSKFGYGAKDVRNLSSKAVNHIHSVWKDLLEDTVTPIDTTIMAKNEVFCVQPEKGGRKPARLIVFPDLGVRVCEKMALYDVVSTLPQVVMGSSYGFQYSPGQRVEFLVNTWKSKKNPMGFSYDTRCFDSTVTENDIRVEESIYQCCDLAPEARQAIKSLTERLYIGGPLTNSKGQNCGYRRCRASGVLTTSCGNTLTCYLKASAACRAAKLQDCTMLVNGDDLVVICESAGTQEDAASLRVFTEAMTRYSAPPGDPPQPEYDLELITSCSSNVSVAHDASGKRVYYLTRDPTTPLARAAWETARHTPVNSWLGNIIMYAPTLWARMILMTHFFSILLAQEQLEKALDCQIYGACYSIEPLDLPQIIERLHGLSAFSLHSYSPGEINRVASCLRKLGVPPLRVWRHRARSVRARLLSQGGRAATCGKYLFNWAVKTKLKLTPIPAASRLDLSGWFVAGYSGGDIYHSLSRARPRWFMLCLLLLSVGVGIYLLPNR
SMILES,melting point [°C],IC50 (HCV polymerase) [nM],further results
NC(=O)c1ccc2c(c1)nc(-c1ccc(OCc3ccccc3)cc1)n2C1CCCC1,232 to 233,,
Cl.O=C(O)c1ccc2c(c1)nc(-c1ccc(OCc3cc(N4CCCC4=O)ccc3-c3ccc(Cl)cc3)cc1F)n2C1CCCCC1,243 to 246,,
Cl.O=C(O)c1ccc2c(c1)nc(-c1ccc(OCc3cc(N4CCCC4=O)ccc3-c3ccc(Cl)cc3)cc1F)n2C1CCCCC1 [2-{4-[2-(4-chlorophenyl)-5-(2-oxopyrrolidin-1-yl)benzyloxy]-2-fluorophenyl}-1-cyclohexylbenzimidazole-5-carboxylic acid hydrochloride],,,blood concentration [1]: high blood concentration; inhibitory activity on HCV type 1b (HCV type 1b): high inhibitory activity; inhibitory activity on HCV type 1a (HCV type 1a): high inhibitory activity
"O=C(O)c1ccc2c(c1)nc(-c1ccc(Oc3cccc(Br)c3)cc1)n2C1CCCCC1 [Example 2, 2-[4-(3-bromophenoxy)phenyl]-1-cyclohexylbenzimidazole-5-carboxylic acid]",255 to 256,79,
O=C(O)c1ccc2c(c1)nc(-c1ccc(OCc3cc(Cl)ccc3-c3ccc(Cl)cc3)cc1)n2C1CCCCC1 [Example 6],243 to 244,,
"COc1ccc(-c2ccc(Cl)cc2)c(COc2ccc(-c3nc4cc(C(=O)O)ccc4n3C3CCCCC3)cc2)c1 [Example 9, 2-{4-[2-(4-chlorophenyl)-5-methoxybenzyloxy]phenyl}-1-cyclohexylbenzimidazole-5-carboxylic acid]",248 to 249,19,
"Cc1nc(-c2ccc(F)cc2)c(COc2ccc(-c3nc4cc(C(=O)O)ccc4n3C3CCCCC3)cc2)s1 [Example 17, 1-cyclohexyl-2-{4-[{4-(4-fluorophenyl)-2-methyl-5-thiazolyl}methoxy]phenyl}benzimidazole-5-carboxylic acid]",196 to 198,47,
"O=C(O)c1ccc2c(c1)nc(-c1ccc(OC(c3cccc(F)c3)c3cccc(F)c3)cc1F)n2C1CCCCC1 [Example 20, 2-{4-(bis[3-fluorophenyl]methoxy)-2-fluorophenyl}-1-cyclohexylbenzimidazole-5-carboxylic acid]",242 to 243,42,
"O=C(O)c1ccc2c(c1)nc(-c1ccc(Oc3cccc(-c4cccc(Cl)c4)c3)cc1)n2C1CCCCC1 [Example 26, 2-{4-[3-(3-chlorophenyl)phenoxy]phenyl}-1-cyclohexylbenzimidazole-5-carboxylic acid]",253 to 254,33,
"O=C(O)c1ccc2c(c1)nc(-c1ccc(Oc3cccc(OCc4ccncc4)c3)cc1)n2C1CCCCC1 [Example 30, 1-cyclohexyl-2-{4-[3-(4-pyridylmethoxy)phenyloxy]-phenyl}benzimidazole-5-carboxylic acid]",235 to 237,52,
"CC(=O)Nc1ccc(-c2ccc(Cl)cc2)c(COc2ccc(-c3nc4cc(C(=O)O)ccc4n3C3CCCCC3)c(F)c2)c1 [Example 458, 2-[4-{2-(4-chlorophenyl)-5-(acetylamino)benzyloxy}-2-fluorophenyl]-1-cyclohexylbenzimidazole-5-carboxylic acid hydrochloride]",,15,
"CCCN(C(C)=O)c1ccc(-c2ccc(Cl)cc2)c(COc2ccc(-c3nc4cc(C(=O)O)ccc4n3C3CCCCC3)c(F)c2)c1 [Example 460, 2-[4-{2-(4-chlorophenyl)-5-(N-acetyl-N-propylamino)benzyloxy}-2-fluorophenyl]-1-cyclohexylbenzimidazole-5-carboxylic acid hydrochloride]",,17,
"CCN(c1ccc(-c2ccc(Cl)cc2)c(COc2ccc(-c3nc4cc(C(=O)O)ccc4n3C3CCCCC3)c(F)c2)c1)S(C)(=O)=O [Example 461, 2-[4-{2-(4-chlorophenyl)-5-[N-ethyl-N-(methylsulfonyl)amino]-benzyloxy}-2-fluorophenyl]-1-cyclohexylbenzimidazole-5-carboxylic acid hydrochloride]",,21,
"CCCN(c1ccc(-c2ccc(Cl)cc2)c(COc2ccc(-c3nc4cc(C(=O)O)ccc4n3C3CCCCC3)c(F)c2)c1)S(C)(=O)=O [Example 462, 2-[4-{2-(4-chlorophenyl)-5-[N-(methylsulfonyl)-N-propylamino]benzyloxy}-2-fluorophenyl]-1-cyclohexylbenzimidazole-5-carboxylic acid hydrochloride]",,28,
"CC(=O)N(C)c1ccc(-c2ccc(Cl)cc2)c(COc2ccc(-c3nc4cc(C(=O)O)ccc4n3C3CCCCC3)c(F)c2)c1 [Example 463, 2-[4-{2-(4-chlorophenyl)-5-(N-acetyl-N-methylamino)benzyloxy}-2-fluorophenyl]-1-cyclohexylbenzimidazole-5-carboxylic acid hydrochloride]",,26,
"CCS(=O)(=O)N(C)c1ccc(-c2ccc(Cl)cc2)c(COc2ccc(-c3nc4cc(C(=O)O)ccc4n3C3CCCCC3)c(F)c2)c1 [Example 464, 2-[4-{2-(4-chlorophenyl)-5-[N-(ethylsulfonyl)-N-methylamino]-benzyloxy}-2-fluorophenyl]-1-cyclohexylbenzimidazole-5-carboxylic acid hydrochloride]",,30,
"CCN(c1ccc(-c2ccc(Cl)cc2)c(COc2ccc(-c3nc4cc(C(=O)O)ccc4n3C3CCCCC3)c(F)c2)c1)S(=O)(=O)CC [Example 465, 2-[4-{2-(4-chlorophenyl)-5-[N-ethyl-N-(ethylsulfonyl)amino]-benzyloxy}-2-fluorophenyl]-1-cyclohexylbenzimidazole-5-carboxylic acid hydrochloride]",,33,
"CCC(=O)N(C)c1ccc(-c2ccc(Cl)cc2)c(COc2ccc(-c3nc4cc(C(=O)O)ccc4n3C3CCCCC3)c(F)c2)c1 [Example 466, 2-[4-{2-(4-chlorophenyl)-5-[N-(ethylcarbonyl)-N-methylamino]-benzyloxy}-2-fluorophenyl]-1-cyclohexylbenzimidazole-5-carboxylic acid hydrochloride]",,23,
"CCC(=O)N(CC)c1ccc(-c2ccc(Cl)cc2)c(COc2ccc(-c3nc4cc(C(=O)O)ccc4n3C3CCCCC3)c(F)c2)c1 [Example 467, 2-[4-{2-(4-chlorophenyl)-5-[N-ethyl-N-(ethylcarbonyl)amino]-benzyloxy}-2-fluorophenyl]-1-cyclohexylbenzimidazole-5-carboxylic acid hydrochloride]",,32,
"COc1ccc(-c2ccc(Cl)cc2)c(COc2ccc(-c3nc4cc(C(=O)O)ccc4n3C3CCCCC3)c(F)c2)c1 [Example 468, 2-[4-{2-(4-chlorophenyl)-5-methoxybenzyloxy}-2-fluorophenyl]-1-cyclohexylbenzimidazole-5-carboxylic acid]",,28,
"CC(=O)N(c1ccc(-c2ccc(Cl)cc2)c(COc2ccc(-c3nc4cc(C(=O)O)ccc4n3C3CCCCC3)c(F)c2)c1)C(C)C [Example 469, 2-[4-{2-(4-chlorophenyl)-5-(N-acetyl-N-isopropylamino)-benzyloxy}-2-fluorophenyl]-1-cyclohexylbenzimidazole-5-carboxylic acid hydrochloride]",,24,
"COc1ccc(-c2ccc(Cl)cc2)c(COc2ccc(-c3cc4cc(C(=O)O)ccc4n3C3CCCCC3)cc2)c1 [Example 502, 2-{4-[2-(4-chlorophenyl)-5-methoxybenzyloxy]phenyl}-1-cyclohexyl-1H-indole-5-carboxylate acid]",,24,
"O=C(O)c1ccc2c(c1)cc(-c1ccc(OCc3ccccc3)cc1)n2C1CCCC1 [Example 503, 2-(4-benzyloxyphenyl)-1-cyclopentyl-1H-indole-5-carboxylic acid]",,196,
"CCOC(=O)c1ccn2c(C3CCCCC3)c(-c3ccc(OCc4ccccc4)cc3)nc2c1 [Example 601, ethyl 2-(4-benzyloxyphenyl)-3-cyclohexylimidazo-[1,2-a]pyridine-7-carboxylate]",,320,
"COc1ccc(-c2ccc(Cl)cc2)c(COc2ccc(-c3nc4cc(C(=O)O)cnc4n3C3CCCCC3)cc2)c1 [Example 701, 2-{4-[2-(4-chlorophenyl)-5-methoxybenzyloxy]phenyl}-3-cyclohexyl-3H-imidazo[4,5-b]pyridine-6-carboxylic acid]",,52,
